Measurements published in patent US11629171B2, “Beta-hairpin peptidomimetics” (POLYPHOR AG, priority 2017, dated 2023).
Converted amounts (≈) assume the structure as drawn. Where a SMILES comes first, the peptide text is derived from it. Bridges are numbered along the chain shown (N, C = ends). Roman numbers before positions name the chains, in order. [ ]: non-standard residue; d: D form. Tle = CC(C)(C)[C@H](N)C(=O)O; dDab = NCC[C@@H](N)C(=O)O; hSer = N[C@@H](CCO)C(=O)O; Orn = NCCC[C@H](N)C(=O)O; Dab = NCC[C@H](N)C(=O)O; Dap = NC[C@H](N)C(=O)O

How the values were obtained:
Format in all cases: cell-based
[1] = system: Klebsiella pneumoniae 968733; settings: 968733
How it was run: (§1)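 Visible-growth endpoint after 18-20 h at 35° C defines the MIC (μg/mL). Setup: CLSI broth microdilution, MH-II cation-adjusted broth with P-80 at 0.002% final, inoculum of approximately 10^6 CFU/mL, two-fold serial peptide dilutions.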

[2] = system: Klebsiella pneumoniae SSI #3010; settings: SSI #3010
How it was run: as §1

[3] = system: Enterobacter cloacae 848840; settings: 848840
How it was run: as §1

[4] = system: Escherichia coli ATCC 25922; settings: ATCC 25922
How it was run: as §1

Escherichia coli 926415 = settings: 926415
How it was run: as §1

[5] = system: Acinetobacter baumannii 872842; settings: 872842
How it was run: as §1

[6] = system: Acinetobacter baumannii DSM 30008; settings: DSM 30008
How it was run: as §1

[7] = system: Pseudomonas aeruginosa ATCC 27853; settings: ATCC 27853
How it was run: as §1

[8] = system: human red blood cells (hRBC); test: Hemolysis; settings: red cells of human, 1 h, 200
How it was run: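 Hemoglobin release from PBS-washed hRBC at 20% (v/v), incubated 1 h at 37° C with peptides at 200 μg/mL, is measured at 540 nm. Values are blank corrected and given as a fraction of Triton X-100 lysis × 100%.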

| MIC [1] | MIC [2] | MIC [3] | MIC [4] | MIC (Escherichia coli 926415) | MIC [5] | MIC [6] | MIC [7] | SMILES | Hemolysis at 200 μg/mL [8] |
| --- | --- | --- | --- | --- | --- | --- | --- | --- | --- |
| 0.5 µg/mL (≈ 0.21 µM) | 0.125 µg/mL (≈ 0.0526 µM) | 0.125 µg/mL (≈ 0.0526 µM) | 0.0625 µg/mL (≈ 0.0263 µM) | 0.25 µg/mL (≈ 0.105 µM) | 0.125 µg/mL (≈ 0.0526 µM) | 0.0625 µg/mL (≈ 0.0263 µM) | 0.125 µg/mL (≈ 0.0526 µM) | CC(=O)N[C@H](C(=O)N[C@H]1CCNC(=O)C[C@@H](C(=O)N[C@@H](CO)C(N)=O)NC(=O)[C@H](C(C)C)NC(=O)[C@H](CO)NC(=O)[C@H](Cc2c[nH]c3ccccc23)NC(=O)[C@H](CO)NC(=O)[C@@H](CCN)NC(=O)[C@H](CCC(=O)N[C@@H](CCN)C(=O)N[C@H](C(=O)N[C@@H](CN)C(=O)N[C@H]2CCNC(=O)[C@H]([C@@H](C)O)NC(=O)[C@H](CCN)NC(=O)[C@H](CCN)NC(=O)[C@H](CC(C)C)NC(=O)[C@@H](CC(C)C)NC(=O)[C@H](CCN)NC2=O)[C@@H](C)O)NC(=O)[C@H](CN)NC(=O)[C@H](Cc2ccc(O)cc2)NC1=O)C(C)C [Ex. 149] (I: Ac-V[Dab]Y[Dap]E[dDab]SWSVDS-NH2 / II: [Dab]T[Dap][Dab][Dab][dL]L[Dab][Dab]T; lactam I:2-I:11, II:4-II:C; amide I:5-II:N) | <1% |
| 0.125 µg/mL (≈ 0.0539 µM) | 0.0625 µg/mL (≈ 0.0269 µM) | 0.125 µg/mL (≈ 0.0539 µM) | 0.03125 µg/mL (≈ 0.0135 µM) | 0.5 µg/mL (≈ 0.216 µM) | 0.125 µg/mL (≈ 0.0539 µM) | 0.03125 µg/mL (≈ 0.0135 µM) | 0.25 µg/mL (≈ 0.108 µM) | CC(=O)N[C@H](C(=O)N[C@H]1CCCNC(=O)[C@@H]([C@H](C)O)NC(=O)[C@H](C(C)C)NC(=O)[C@H](CO)NC(=O)[C@H](Cc2c[nH]c3ccccc23)NC(=O)[C@H](CCO)NC(=O)[C@@H](CCN)NC(=O)[C@H](CCC(=O)N[C@@H](CCN)C(=O)N[C@H](C(=O)N[C@@H](CN)C(=O)N[C@H]2CCNC(=O)[C@H]([C@@H](C)O)NC(=O)[C@H](CCN)NC(=O)[C@H](CCN)NC(=O)[C@H](CC(C)C)NC(=O)[C@@H](CC(C)C)NC(=O)[C@H](CCN)NC2=O)[C@@H](C)O)NC(=O)[C@H](CCN)NC(=O)[C@H](Cc2ccc(O)cc2)NC1=O)C(C)C [Ex. 31] (I: Ac-V[Orn]Y[Dab]E[dDab][hSer]WSV[dT] / II: [Dab]T[Dap][Dab][Dab][dL]L[Dab][Dab]T; lactam I:2-I:C, II:4-II:C; amide I:5-II:N) | <1% |
| 0.125 µg/mL (≈ 0.0509 µM) | 0.125 µg/mL (≈ 0.0509 µM) | 0.25 µg/mL (≈ 0.102 µM) | 0.125 µg/mL (≈ 0.0509 µM) | 0.25 µg/mL (≈ 0.102 µM) | 0.25 µg/mL (≈ 0.102 µM) | 0.0625 µg/mL (≈ 0.0255 µM) | 0.125 µg/mL (≈ 0.0509 µM) | CC(=O)N[C@H](C(=O)N[C@H]1CSSC[C@@H](C(=O)N[C@@H](CO)C(N)=O)NC(=O)[C@H](C(C)(C)C)NC(=O)[C@H](CCO)NC(=O)[C@H](Cc2c[nH]c3ccccc23)NC(=O)[C@H](CCO)NC(=O)[C@@H](CCN)NC(=O)[C@H](CCC(=O)N[C@@H](CCN)C(=O)N[C@H](C(=O)N[C@@H](CCN)C(=O)N[C@H]2CCNC(=O)[C@H]([C@@H](C)O)NC(=O)[C@H](CCN)NC(=O)[C@H](CCN)NC(=O)[C@H](CC(C)C)NC(=O)[C@@H](CC(C)C)NC(=O)[C@H](CCN)NC2=O)[C@@H](C)O)NC(=O)[C@H](CCN)NC(=O)[C@H](Cc2ccc(O)cc2)NC1=O)C(C)C [Ex. 49] (I: Ac-VCY[Dab]E[dDab][hSer]W[hSer][Tle]CS-NH2 / II: [Dab]T[Dab][Dab][Dab][dL]L[Dab][Dab]T; disulfide I:2-I:11; amide I:5-II:N; lactam II:4-II:C) | <1% |
